Results from the METLIN SMRT retention time set (Domingo-Almenara et al. 2019).

assay: gradient 5% acetonitrile 3 min, to 50% in 2 min, to 85% in 15 min, held 3 min, 100 µL/min; conditions: column: Zorbax Extend-C18 2.1 x 50 mm; eluents: water / acetonitrile, 0.1% formic acid
Outline: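 A Zorbax Extend-C18 column (2.1 × 50 mm, 1.8 μm) run at 100 μL/min with water and acetonitrile, both containing 0.1% formic acid, separated mixtures of ~100 pure standards. The HPLC was coupled to a quadrupole time-of-flight mass spectrometer operated in positive and negative ionization mode, with dead and dwell volumes of 40 μL and 900 μL. Each retention time was taken from a computationally picked adduct peak that was then manually inspected.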

| RP-LC retention time | SMILES |
| --- | --- |
| 649 s | c1cncc(CN2CCc3c(sc4ncnc(N5CCOCC5)c34)C2)c1 |
| 773 s | CCc1noc([C@@H]2CC(F)(F)CN2S(=O)(=O)c2cccnc2)n1 |
| 1100 s | COc1ccc(C2Cn3nnc(-c4nc(-c5cccc(F)c5)no4)c3CO2)cc1 (stereo unspecified) |
| 813 s | O=C(CN1CCN(Cc2ccccc2)C1=O)N1CCN(c2ccc(F)cc2)CC1 |
| 834 s | Cn1c(=O)c(N2CCN(C(=O)c3cc(F)ccc3F)CC2)nc2cccnc21 |
| 774 s | CCOc1ccccc1CNC(=O)C1CCCN(c2nnc(C)c3c(C)n(-c4ccccc4)nc23)C1 (stereo unspecified) |
| 662 s | Cc1cnc(C(=O)N[C@@H]2CCC[C@@H]2C(=O)NCc2ccc3c(c2)OCO3)cn1 |
| 672 s | O=C1OCC2=C1C(c1ccccc1)NC(=O)N2CC(=O)N1CCCCC1 (stereo unspecified) |
| 686 s | COCCC(=O)N1CCN(c2nc(CN3CCOCC3)cs2)CC1 |
| 955 s | Cc1ccc(-c2nnc(-c3cccc(S(=O)(=O)NC(C)(C)CO)c3)o2)cc1 |
| 684 s | CCOc1ccc(C(=O)Nc2ccc(-c3cn4ccc(C)nc4n3)cc2)cc1OCC |
| 1010 s | CCc1nc(-c2csc(S(=O)(=O)N3CCCC(C(=O)Nc4cccc(C#N)c4)C3)c2)no1 (stereo unspecified) |
| 704 s | Clc1ccccc1Cc1nc(-c2ccc(OC3CCNC3)cc2)no1 (stereo unspecified) |
| 796 s | Cc1c(-c2ccnc(N3CCN(Cc4ccccc4)CC3)n2)cnc2nc(-c3ccc(Cl)cc3)nn12 |
| 1020 s | COc1ccc(-c2cc3c(=O)n(Cc4nc(-c5ccc(OC)cc5OC)oc4C)ccn3n2)cc1 |
| 730 s | CC(C)c1ccc(-c2noc(N3CCC(C(=O)NCCN4CCCC4)CC3)n2)cc1 |
| 762 s | Cc1cccc(NS(=O)(=O)c2c[nH]c3ncccc23)c1C |
| 806 s | Clc1ccc(-c2cc3c(N4CCN(C5CCCCC5)CC4)nccn3n2)cc1 |
| 719 s | Cc1c(Cl)cccc1N1CCn2c1nc1c2c(=O)n(CC(=O)O)c(=O)n1C |
| 1190 s | COc1cccc(Cn2nc(-c3nc(-c4ccc(Cl)cc4)no3)ccc2=O)c1 |
| 626 s | Cc1nc(-c2cnccn2)nc2c1CCC(=O)N2CC1CCCO1 (stereo unspecified) |
| 811 s | Cn1c(=O)c(N2CCC(C(=O)NCCc3ccco3)CC2)nc2cccnc21 |

| RP-LC retention time | SMILES |
| --- | --- |
| 662 s | Cc1nncn1C1CN(C(=O)Nc2ccc(Cl)cc2C(F)(F)F)C1 |
| 932 s | CSc1nnc(C)c(=O)n1COC(=O)c1cc(C(F)(F)F)cc(C(F)(F)F)c1 |
| 830 s | Cc1ccc(C2Cn3cnc(C(=O)N4CCC(C(=O)NCc5ccc(F)cc5F)CC4)c3CO2)cc1 (stereo unspecified) |
| 934 s | CCCc1nc(-c2c(C)cc(C)nc2NC(=O)c2ccccc2Cl)no1 |
| 570 s | Cc1nc(C)c(C(=O)NCCn2c(C)cnc2C2CCC2)s1 |
| 663 s | CCOC(=O)c1c(C)c(CCC(=O)NCc2cn[nH]c2C)n(C)c1C |
| 805 s | CCC(C)N(CC(=O)N(Cc1ccco1)CC1CCCO1)C(=O)c1ccccc1OC (stereo unspecified) |
| 966 s | O=C(NCCC1=CCCCC1)c1cnc(-c2ccccc2)nc1-c1ccncc1 |
| 990 s | CCCN1CCn2cc(S(=O)(=O)NCc3ccc(OC)cc3)cc2C1=O |
| 680 s | CCN(CC)C(=O)C1CCN(S(=O)(=O)c2ccc3c(c2)NC(=O)CO3)CC1 |
| 762 s | Cc1cccc(CNC(=O)C2CCN(C(=O)C3Sc4ccccc4NC3=O)CC2)c1 (stereo unspecified) |
| 814 s | Cc1ccc(CNC(=O)CCCn2c3ccccc3c3cnn(C)c(=O)c32)o1 |
| 1300 s | CCC(C)n1c(=O)c2ccccc2n(Cc2nc(-c3cccc(C(F)(F)F)c3)no2)c1=O (stereo unspecified) |
| 743 s | COCc1nncn1C1CCN(S(=O)(=O)c2ccc(C)cc2C)CC1 |
| 831 s | COc1ccc(Cl)cc1NC(=O)CN1C(=O)NC2(CCCCC2)C1=O |
| 708 s | CC1(C)SC(C)(C)N(C=O)C1C(=O)O (stereo unspecified) |
| 654 s | Cc1nnc(C2CCCN(C(=O)c3cc(-c4ccc5c(c4)OCO5)n[nH]3)C2)s1 (stereo unspecified) |
| 758 s | Cc1cccc(C)c1NC(=O)Cn1cnc2nc3c(cc2c1=O)CC(C)CC3 (stereo unspecified) |
| 1200 s | Cc1c(Cl)cccc1NC(=O)C1CCCN(c2nc3c(s2)c(C)nn3-c2cccc(F)c2)C1 (stereo unspecified) |
| 636 s | Cc1c(-c2ccccc2)nc2ccccc2c1C(=O)N1CCN(c2ncccn2)CC1 |
| 622 s | O=C(CC1CCCCC1)N1CCC(c2ccncc2)CC1 |
| 825 s | COc1ccc(-c2cc3n(n2)C(NCc2cccs2)CNC3=O)cc1 (stereo unspecified) |

| RP-LC retention time | SMILES |
| --- | --- |
| 798 s | O=C(NCc1noc(Cc2ccccc2)n1)c1ccccc1 |
| 1030 s | Cc1ccc(NC(=O)Nc2ccc3c(c2)CCN3S(=O)(=O)c2ccccc2)cc1C |
| 1230 s | Cc1cccc(N2CCN(S(=O)(=O)c3ccc(-c4c(C)noc4C)cc3)CC2)c1C |
| 1460 s | Cc1cccc(N2CCN(c3ccc4cc(S(=O)(=O)N5CCC(C)CC5)ccc4n3)CC2)c1C |
| 574 s | O=C(NCc1ccncc1)c1ccc(-c2ccc(N3CCSCC3)nc2)cc1 |
| 766 s | O=C(Cc1c(F)cccc1Cl)N1C[C@@H]2C[C@H]1C[C@@H]2NS(=O)(=O)c1cccs1 |
| 718 s | COc1ncc(C(=O)NCc2cc(F)cc(F)c2)cn1 |
| 697 s | Cc1cc(Cl)ccc1S(=O)(=O)N1CCC2(CC1)c1nccn1CCN2C |
| 667 s | CC(C)CCNC(=O)N1CCN(Cc2nc3cccnc3n2-c2ccc(F)cc2)CC1 |
| 685 s | COc1cc(NC(=O)N2CCC3(CC2)NC(=O)c2ccccc2O3)cc(OC)c1OC |
| 808 s | Cc1ccc(CNC(=O)C2CCN(c3nc(C4CCC4)nc4csc(C)c34)CC2)cc1C |
| 881 s | O=C(Cn1nc2c(Oc3ccc(Cl)cc3)nccn2c1=O)NC1CCCCC1 |
| 700 s | CCN(CC)C(=O)N1CCCN(S(C)(=O)=O)C(c2ccccc2)CC(=O)NCC1 (stereo unspecified) |
| 943 s | CCc1ccc(C(C)NC(=O)C2CCN(c3nnc(-c4ccc(OC)cc4)o3)CC2)cc1 (stereo unspecified) |
| 688 s | O=C(Nc1cc(F)cc(F)c1)N1CCCN(C2CCN(Cc3ccc(F)cc3)C2=O)CC1 (stereo unspecified) |
| 788 s | O=C(NCc1ccco1)C1(c2ccc(F)cc2)CC1 |
| 626 s | CCOc1ccc(-c2noc(N3CCC(C(=O)N4CCN(C)CC4)CC3)n2)cc1OC |
| 1160 s | O=S(=O)(c1cccc(-c2nnc(-c3ccccc3Br)o2)c1)N1CCCCC1 |
| 739 s | CCOc1ccc(NC(=O)N2CCC3(CC2)NC(=O)c2ccccc2O3)cc1 |
| 787 s | CC(C)NC(=O)c1ccc(OCC2CCCN(C(=O)C(C)C)C2)cc1 (stereo unspecified) |
| 961 s | O=C(COc1ccccc1-c1nnc(-c2ccccc2)o1)NCc1ccco1 |
| 1120 s | Cc1cc(C(=O)NCc2ccccc2F)nc2cc(-c3cccs3)nn12 |
